# Measured values published in US20230167088A1, “1-PYRAZINYLPYRAZOLYL-3-OXYALKYL ACIDS AND THEIR DERIVATIVES, AND THEIR USE FOR CONTROL OF UNDESIRED PLANT GROWTH” (BAYER AKTIENGESELLSCHAFT, priority 2020, published 2023).
# What was measured:
# SETVI = assay: Herbicidal pre-emergence action 2a (greenhouse pots, visual scoring); assay type: in vivo, Setaria viridis; conditions: dosage 320 g/ha, visual scoring after about 3 weeks vs untreated controls
# Method in brief: (§1)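 Dose levels were 320 g/ha and/or 80 g/ha, delivered as an aqueous spray of wettable powder or emulsion concentrate plus 0.5% additive onto soil over sown seeds. Plants grew under good greenhouse conditions for about 3 weeks before visual percentage rating versus untreated pots.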
# DIGSA = assay: as above; assay type: in vivo, Digitaria sanguinalis; conditions: dosage 320 g/ha, visual scoring after about 3 weeks
# Method in brief: as §1
# LOLRI = assay: as above; assay type: in vivo, Lolium rigidum; conditions: dosage 320 g/ha, visual scoring after about 3 weeks vs untreated controls
# Method in brief: as §1
# POLCO = assay: Herbicidal post-emergence action 1a (greenhouse pots, visual rating); assay type: in vivo, Polygonum convolvulus; conditions: visual rating about 3 weeks after treatment
# Method in brief: (§2)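 Visual scoring versus untreated plants (100% = plants dead, 0% = as control) followed roughly 3 weeks in the greenhouse after treatment. Plants grown in sandy loam pots had been sprayed on green parts at the one-leaf stage, 2–3 weeks post-sowing, with aqueous WP/EC preparations containing 0.5% additive, 600 l/ha, at 320 and/or 80 g/ha.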
# VIOTR = assay: Herbicidal pre-emergence action 2a (greenhouse pots, visual scoring); assay type: in vivo, Viola tricolor; conditions: dosage 320 g/ha, visual scoring after about 3 weeks vs untreated controls
# Method in brief: as §1
# MATIN = assay: Herbicidal post-emergence action 1a (greenhouse pots, visual rating); assay type: in vivo, Matricaria inodora; conditions: visual rating about 3 weeks after treatment
# Method in brief: as §2
# ECHCG [1] = assay: as above; assay type: in vivo, Echinochloa crus-galli; conditions: rated visually about 3 weeks after treatment, 100% = plants have died, 0% = like control plants
# Method in brief: as §2
# harmful plants = assay: Herbicidal post-emergence action 1a, summary across species; assay type: in vivo; conditions: Tables A1 to A15 (320 g/ha and/or 80 g/ha)
# Method: a) Seeds of monocotyledonous and dicotyledonous weeds and crop plants are placed in sandy loam in plastic or organic plant pots, covered with soil and cultivated in a greenhouse under controlled growth conditions. 2 to 3 weeks after sowing, the test plants are treated at the one-leaf stage. The compounds of the invention, formulated in the form of wettable powders (WP) or as emulsion concentrates (EC), are then sprayed onto the green parts of the plants as aqueous suspension or emulsion with addition of 0.5% additive at a water application rate of 600 1/ha (converted). After the test plants have been kept in the greenhouse under optimum growth conditions for about 3 weeks, the activity of the preparations is rated visually in comparison to untreated controls. For example, 100% activity=the plants have died, 0% activity=like control plants.
# Tables A1 to A15 below show the effects of selected compounds of the general formula (I) according to Tables 1 and 2 on various harmful plants and an application rate corresponding to 320 g/ha and/or 80 g/ha, which were obtained by the experimental procedure mentioned above.
# For example, compound nos. I-05, I-07, I-08, I-10, I-12, I-16, I-17, I-22, I-36, I-37, I-39 and I-40 in the post-emergence method have very good action (80% to 100% herbicidal activity) against harmful plants such as Alopecurus myosuroides, Amaranthus retroflexus, Avena fatua, Lolium rigidum, Polygonum convolvulus, Setaria viridis, Veronica persica and Viola tricolor at an application rate of 0.32 kg of active substance per hectare.
# AMARE = assay: Herbicidal pre-emergence action 2a (greenhouse pots, visual scoring); assay type: in vivo, Amaranthus retroflexus; conditions: dosage 320 g/ha, visual scoring after about 3 weeks vs untreated controls
# Method in brief: as §1
# ECHCG [2] = assay: as above; assay type: in vivo, Echinochloa crus-galli; conditions: dosage 320 g/ha, visual scoring after about 3 weeks
# Method in brief: as §1
# POAAN = assay: Herbicidal pre-emergence action 2b (doubly sown, 1280 g/ha); assay type: in vivo, Poa annua; conditions: doubly sown pots, dosage 1280 g/ha, visual scoring after about 3 weeks
# Method in brief: (§3)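 Pre-emergence soil-surface spray (WP/EC formulation, 0.5% additive, 600 L/ha water) onto covered seeds in sandy loam, doubly sown per pot. Greenhouse ~3 wk; % effect scored visually against untreated pots.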
# ECHCG [3] = assay: as above; assay type: in vivo, Echinochloa crus-galli; conditions: doubly sown pots, dosage 1280 g/ha, visual scoring after about 3 weeks
# Method in brief: as §3
Structure (SMILES),Pre-emergence action against SETVI in % (SETVI),Pre-emergence action against DIGSA in % (DIGSA),Pre-emergence action against LOLRI in % (LOLRI),Post-emergence action against POLCO in % (POLCO; dosage 320 g/ha),Pre-emergence action against VIOTR in % (VIOTR),Post-emergence action against MATIN in % (MATIN; dosage 80 g/ha),Post-emergence action against MATIN in % (MATIN; dosage 320 g/ha),Post-emergence action against ECHCG in % (ECHCG [1]; Dosage 80 g/ha),Post-emergence action against ECHCG in % (ECHCG [1]; Dosage 320 g/ha),herbicidal efficacy against harmful plants in the case of post-emergence treatment (in words) (harmful plants),Pre-emergence action against AMARE in % (AMARE),Pre-emergence action against ECHCG in % (ECHCG [2]),Post-emergence action against POLCO in % (POLCO; dosage 80 g/ha),Pre-emergence action at 1280 g/ha against POAAN in % (POAAN),Pre-emergence action at 1280 g/ha against ECHCG in % (ECHCG [3])
COC(=O)C(C)Oc1nn(-c2cnccn2)c(-c2cncc(F)c2)c1Br (racemic) [Example I-08],100%,100%,100%,100%,100%,80%,90%,80%,90%,good herbicidal efficacy,100%,100%,,,
COC(=O)COc1nn(-c2cnccn2)c(-c2cncc(F)c2)c1Br [Example I-07],100%,100%,100%,90%,100%,90%,90%,80%,90%,good herbicidal efficacy,100%,100%,80%,,
COC(=O)COc1nn(-c2cnccn2)c(-c2ccc(F)c(F)c2)c1Br [Example I-15],100%,100%,100%,,100%,,80%,,90%,good herbicidal efficacy,100%,100%,,,
COC(=O)[C@@H](C)Oc1nn(-c2cnccn2)c(-c2cccc(F)c2)c1Br [Example I-20],100%,100%,,80%,90%,,,,80%,good herbicidal efficacy,100%,90%,,100%,100%
COC(=O)[C@@H](C)Oc1nn(-c2cnccn2)c(-c2ccnc(F)c2)c1Br [Example I-34],100%,100%,100%,100%,100%,,90%,,,good herbicidal efficacy,90%,80%,,100%,90%
COC(=O)[C@@H](C)Oc1nn(-c2cnccn2)c(-c2ccc(F)nc2)c1Cl [Example I-36],100%,100%,100%,100%,100%,,80%,,,good herbicidal efficacy,100%,100%,90%,100%,90%
C[C@H](Oc1nn(-c2cnccn2)c(-c2cncc(F)c2)c1Br)C(=O)O [Example I-37],100%,100%,100%,100%,100%,,80%,,90%,good herbicidal efficacy,90%,90%,,100%,100%
COC(=O)[C@@H](C)Oc1nn(-c2cnccn2)c(-c2cncc(F)c2)c1Br [Example I-39],100%,100%,100%,90%,100%,80%,90%,80%,90%,good herbicidal efficacy,100%,100%,,100%,100%
CCOC(=O)COc1nn(-c2cnccn2)c(-c2ccc(F)nc2)c1Cl [Example I-53],100%,100%,80%,90%,100%,80%,,80%,,good herbicidal efficacy,100%,100%,90%,100%,100%
